Experimental findings from US10548897B2, “KSR antagonists” (Icahn School of Medicine at Mount Sinai, priority 2015, dated 2020) are described below.

One test deals with KSR2:B-RAF^F667E dimers (Homo sapiens, UniProt Q6VAB6). In words: Biolayer inferometry of KSR2:B-RAF dimerization (Octet Red96). The format is binding. The conditions noted are these: compound at 25 μM. How it is done: B-RAF and B-RAF mutants (F667E+/−R509H) were immobilized on sensor-heads and KSR2:MEK1 or MEK1 assembly was monitored. Curves indicate dose ranges of KSR2:MEK1 or MEK1 from 625 nM to 10 μM. In all plots, association occurred from 0 to 660 seconds, and dissociation was monitored thereafter up to 1500 seconds. Compound 21 and trametinib were added in the presence of KSR2:MEK1 at a concentration of 25 μM each.
To directly investigate the impact of Compound 21 on KSR2:B-RAF dimerization, bio-layer inferometry (BLI) was utilized to monitor real-time association and dissociation of KSR2:MEK1 or free MEK1 to a sensor tethered with immobilized B-RAF.
To specifically monitor KSR2:B-RAF dimerization relative to other possible interactions, a mutation in B-RAF^F667E was identified that eliminates binding to free MEK but not KSR2-MEK1 complexes, as shown in FIGS. 7C-7D. […]
Interactions between purified B-RAF and the KSR2:MEK1 complex were measured using biolayer inferometry on the Octet Red96 system (Forte Bio). […] Association and dissociation was monitored over 660 and 840 seconds, respectively. Data sets were normalized and analysed using global fit binding models (Fortebio software). […]

Another test has as its system MEK. In words: Inhibitory activity against purified MEK. The format is biochemical.
The next test has as its system ERK. In words: Inhibitory activity against purified ERK. The format is biochemical.

Consider `COc1cc2ncnc(Nc3ccc(Oc4ccccc4)cc3C)c2cc1OC` [Compound 21, 6,7-Dimethoxy-N-(2-methyl-4-phenoxyphenyl)quinazolin-4-amine 2,2,2-trifluoroacetate], for which the “association of KSR2:MEK1 with immobilized B-RAF^F667E” value on KSR2:B-RAF^F667E dimers is on record as “did not associate”. Besides, the “inhibitory activity against purified MEK” value in the test on MEK is “lacked detectable inhibitory activity”. In the test on ERK, the “inhibitory activity against purified ERK” value is recorded as “lacked detectable inhibitory activity”.
